According to patent US6613961B1, “Plants capable of metabolizing drugs and use thereof” (priority 1998, dated 2003):

Experiments:
[1] = system: leaves of potato individuals expressing three types of P450; assay: 7-ethoxycoumarin O-deethylation activity in leaves of kanamycin-resistant individuals; assay type: in vivo, Solanum tuberosum cv. MayQueen; details: leaves cultured with 7-ethoxycoumarin for 3 days
Protocol: Leaves of the kanamycin-resistant individuals (0.1 g) were cultured in 5 ml of a liquid medium containing 2% sucrose with 100 μl of 20 mM 7-ethoxycoumarin for 3 days. Then, the leaves were crushed in 500 μl of 0.1 M potassium phosphate buffer (pH 7.4), and chloroform was added to the supernatant and mixed. To the chloroform layer, 0.01 N NaOH/0.1 M NaCl was added, and measurement was performed at excitation wavelength of 366 nm and at emission of 452 nm with the Hitachi fluorometer. […] Each of CYP1A1-expressing individual S1965, and CYP2B6-expressing individual S1972 was selected in the same manner.

[2] = system: microsomal fraction of Control plants; assay: 7-ethoxyresorufin O-deethylation activity using a microsomal fraction; assay type: biochemical, Solanum tuberosum cv. MayQueen
Protocol: (§1) A reaction was initiated by adding 7-ethoxyresorufin to the concentration of 10 μM to a reaction solution containing 0.1 M potassium phosphate buffer (pH 7.4), 3 mM NADPH, and 1 mg/ml microsomal fractions at the final concentrations. The mixture was incubated at 37° C. for 30 min, ice-cooled acetone was added thereto, and allowed to stand on ice for 10 min. The supernatant was measured using the fluorometer (excitation wavelength of 550 nm, and emission of 586 nm).
(§2) Inhibition of activity by addition of carbon monoxide and absence of NADPH indicated P450-dependency. On the other hand, an increased activity was not observed in S1972 or S1974. […] In the table, “EROD activity” of (a) indicates 7-ethoxyresorufin O-deethylase activity (pmol/min/mg of protein) and means±standard deviations in three independent experiments. In (b), the values indicate the activities in the presence of carbon monoxide. In (c), the values indicate the activities in the absence of NADPH.

[3] = target: T1, microsomal fraction of S1965 (human CYP1A1) (Homo sapiens, UniProt P04798); assay: as above; assay type: biochemical
T1 construct: expressed in transfected cells; host or cells: transgenic potato (Solanum tuberosum cv. MayQueen) line S1965, plasmid pUHA1, microsomal fraction
T1 sequence (P04798 1-512): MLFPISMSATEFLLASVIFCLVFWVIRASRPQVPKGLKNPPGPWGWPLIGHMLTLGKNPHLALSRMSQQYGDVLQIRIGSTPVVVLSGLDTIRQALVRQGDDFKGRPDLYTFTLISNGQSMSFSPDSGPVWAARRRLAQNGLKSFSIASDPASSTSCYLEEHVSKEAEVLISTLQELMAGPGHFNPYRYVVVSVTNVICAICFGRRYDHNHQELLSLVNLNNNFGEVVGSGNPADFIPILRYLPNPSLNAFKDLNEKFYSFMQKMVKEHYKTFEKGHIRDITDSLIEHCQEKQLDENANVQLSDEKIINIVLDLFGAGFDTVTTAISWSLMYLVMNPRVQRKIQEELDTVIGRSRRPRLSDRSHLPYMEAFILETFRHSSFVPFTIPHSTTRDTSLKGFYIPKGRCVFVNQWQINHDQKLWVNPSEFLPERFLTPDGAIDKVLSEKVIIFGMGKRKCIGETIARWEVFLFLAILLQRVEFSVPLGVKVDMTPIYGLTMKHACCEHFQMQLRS
Protocol: as §1, §2

[4] = target: T2, microsomal fraction of S1972 (human CYP2B6) (Homo sapiens, UniProt P20813); assay: as above; assay type: biochemical
T2 construct: expressed in transfected cells; host or cells: transgenic potato (Solanum tuberosum cv. MayQueen) line S1972, plasmid pUHB6, microsomal fraction
Protocol: as §1, §2

[5] = target: T3, microsomal fraction of S1974 (human CYP2C19) (Homo sapiens, UniProt P33261); assay: as above; assay type: biochemical
T3 construct: expressed in transfected cells; host or cells: transgenic potato (Solanum tuberosum cv. MayQueen) line S1974, plasmid pUHC19, microsomal fraction
T3 sequence (P33261 whole entry): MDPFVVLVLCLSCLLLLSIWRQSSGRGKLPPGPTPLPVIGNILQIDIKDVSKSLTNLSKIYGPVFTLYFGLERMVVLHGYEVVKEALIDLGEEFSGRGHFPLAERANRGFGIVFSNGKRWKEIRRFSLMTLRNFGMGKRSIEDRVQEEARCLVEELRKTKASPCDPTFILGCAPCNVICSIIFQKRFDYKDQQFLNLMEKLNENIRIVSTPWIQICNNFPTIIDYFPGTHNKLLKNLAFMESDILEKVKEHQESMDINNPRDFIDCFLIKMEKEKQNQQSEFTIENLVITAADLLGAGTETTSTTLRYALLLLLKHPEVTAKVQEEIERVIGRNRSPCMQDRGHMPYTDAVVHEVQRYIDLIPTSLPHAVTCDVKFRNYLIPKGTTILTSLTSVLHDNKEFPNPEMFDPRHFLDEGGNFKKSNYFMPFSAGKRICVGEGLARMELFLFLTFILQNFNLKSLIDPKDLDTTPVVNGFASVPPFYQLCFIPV
Protocol: as §1, §2

[6] = target: T4, microsomal fraction of T1977 (human CYP1A1, CYP2B6, CYP2C19) (Homo sapiens, UniProt P04798); assay: as above; assay type: biochemical
T4 construct: expressed in transfected cells; host or cells: transgenic potato (Solanum tuberosum cv. MayQueen) line T1977, plasmid pIKBAC, microsomal fraction
T4 sequence (P04798 1-512): T1 sequence (P04798 1-512)
Protocol: as §1, §2

[7] = system: non-transformed MayQueen; assay: Assay for herbicide resistance, non-transformed potato; assay type: in vivo; design: key: 1: alomost dead; 2: severely inhibited growth; 3: slightly inferior growth; 4: the same growth as that when herbicide was not dispersed; details: 14 days after dispersal
Description: 4, the same growth as that when herbicide was not dispersed.

[8] = system: S1974 (human CYP2C19); assay: Herbicide tolerance assay for transformants; assay type: in vivo, Solanum tuberosum cv. MayQueen; details: acetochlor 20 μmol, atrazine 1.2 μmol, metolachlor 30 μmol dispersed
Description: Then, herbicides were dispersed.

[9] = system: seeds of Nipponbare into which the gene was not introduced; assay: Germination assay for herbicide resistance, non-introduced rice seeds; assay type: in vivo, rice (Nipponbare); details: […] metolachlor, […] alachlor, 15 μM triflurarin; after about 4 to 7 days
[10] = target: T5, Human CYP2B6 (Homo sapiens, UniProt P20813); assay: Metabolism of herbicides in microsomes of recombinant yeast expressing human P450
T5 sequence (P20813 1-491): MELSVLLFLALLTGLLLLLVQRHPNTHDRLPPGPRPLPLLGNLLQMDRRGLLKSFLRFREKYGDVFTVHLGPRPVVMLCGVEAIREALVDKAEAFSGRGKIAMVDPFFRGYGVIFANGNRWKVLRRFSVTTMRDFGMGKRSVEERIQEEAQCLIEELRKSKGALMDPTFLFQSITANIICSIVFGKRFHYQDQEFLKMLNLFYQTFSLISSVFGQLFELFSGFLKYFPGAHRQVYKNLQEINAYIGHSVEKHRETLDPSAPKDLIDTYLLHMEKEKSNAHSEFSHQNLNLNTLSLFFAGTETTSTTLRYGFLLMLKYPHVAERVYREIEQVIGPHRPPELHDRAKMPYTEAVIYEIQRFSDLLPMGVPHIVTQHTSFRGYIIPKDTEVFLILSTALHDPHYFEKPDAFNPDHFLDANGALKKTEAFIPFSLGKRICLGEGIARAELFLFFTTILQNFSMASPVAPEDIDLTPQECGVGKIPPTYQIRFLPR
Protocol: The reaction was carried out in a range of temperature suitable for an organism from which a p450 molecular species is derived (for example, 37° C. for human P450), by mixing with air while vigorously shaking, within a period during which an enzyme is not inactivated (for example, for 10 to 60 min).
From the height of the peak, a metabolized amount can be obtained.
To 0.1 M potassium phosphate buffer (pH 7.4), the microsomal fraction prepared from each of yeast strains respectively expressing one of 11 human P450 molecular species (obtained from Sumitomo Chemical) was added so that the amount of the p450 would be 25 pmol. Furthermore, 0.5 mM NADPH, 5 mM glucose 6 phosphate, 1 U/ml glucose 6 phosphate dehydrogenase, and 0.1 mM each of the following herbicides (those available in the market were used) were added at the final concentrations thereto to make the total volume of 100 μl. The reaction mixture was shaken at 37° C. for 60 min, and an organic solvent was added thereto for the extraction. The extract was applied to the high performance liquid chromatography, and the metabolite was measured.

[11] = target: T6, Human CYP1A1 (Homo sapiens, UniProt P04798); assay: as above; assay type: in vitro ADME
T6 construct: purchased Sumitomo Chemical; host or cells: recombinant yeast, microsomal fraction
T6 sequence (P04798 1-512): T1 sequence (P04798 1-512)

[12] = target: Human CYP2C9 (Homo sapiens, UniProt P11712); assay: Herbicide metabolism by human P450 molecular species (microsomal fraction); assay type: in vitro ADME
Chain of Human CYP2C9 (P11712 whole entry): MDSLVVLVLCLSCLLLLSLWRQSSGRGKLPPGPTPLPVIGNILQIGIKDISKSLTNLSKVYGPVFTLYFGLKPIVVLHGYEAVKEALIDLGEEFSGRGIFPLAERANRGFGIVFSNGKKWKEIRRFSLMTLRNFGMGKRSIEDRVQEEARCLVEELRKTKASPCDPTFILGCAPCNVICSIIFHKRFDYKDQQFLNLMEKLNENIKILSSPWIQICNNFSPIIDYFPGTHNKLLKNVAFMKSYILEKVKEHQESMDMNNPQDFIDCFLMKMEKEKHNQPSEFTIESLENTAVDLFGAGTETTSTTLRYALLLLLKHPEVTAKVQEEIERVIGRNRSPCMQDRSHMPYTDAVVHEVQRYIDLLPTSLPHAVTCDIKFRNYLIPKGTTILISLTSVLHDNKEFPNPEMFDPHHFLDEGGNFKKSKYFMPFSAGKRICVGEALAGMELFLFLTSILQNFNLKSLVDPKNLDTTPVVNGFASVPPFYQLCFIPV

[13] = 10 μM 7-ethoxyresorufin, means±standard deviations in three independent experiments

With `CCOc1ccc2ccc(=O)oc2c1` [7-ethoxycoumarin] the “7-ethoxycoumarin O-deethylation activity” value ([1]; individual T1977) was “higher activity than the control” and the “7-ethoxycoumarin O-deethylation activity” value ([1]; individual T1979) was “higher activity than the control”.
With `CCOc1ccc2nc3ccc(=O)cc-3oc2c1` [7-ethoxyresorufin] the “-NADPH (Inhibition rate)” value [2] was 82%, the “CO (Inhibition rate)” value [2] was 45% and the EROD activity [2, 13] was 0.11 ± 0.01 pmol/min/mg of protein. For the same molecule, the “EROD activity in the absence of NADPH” value ([2]; -NADPH) was 0.02 pmol/min/mg of protein, the “EROD activity in the presence of carbon monoxide” value (from here on “EROD activity in the presence”) ([2]; CO) was 0.06 pmol/min/mg of protein and the “7-ethoxyresorufin O-deethylation activity, times higher than the controls” value [3] was roughly 53 times. For the same molecule, the “-NADPH (Inhibition rate)” value [3] was 99%, the “CO (Inhibition rate)” value [3] was 77% and the EROD activity [3, 13] was 5.78 ± 0.51 pmol/min/mg of protein. The “EROD activity in the absence of NADPH” value ([3]; -NADPH) was 0.06 pmol/min/mg of protein, the “EROD activity in the presence” value ([3]; CO) was 1.33 pmol/min/mg of protein and the “increased 7-ethoxyresorufin O-deethylation activity” value [4] was “not observed”. The EROD activity [4, 13] was 0.12 ± 0.03 pmol/min/mg of protein, the “increased 7-ethoxyresorufin O-deethylation activity” value [5] was “not observed” and the EROD activity [5, 13] was 0.14 ± 0.03 pmol/min/mg of protein. The “7-ethoxyresorufin O-deethylation activity, times higher than the controls” value [6] was “about 27 times”, the “-NADPH (Inhibition rate)” value [6] was 99% and the “CO (Inhibition rate)” value [6] was 76%. For the same molecule, the EROD activity [6, 13] was 2.92 ± 0.72 pmol/min/mg of protein, the “EROD activity in the absence of NADPH” value ([6]; -NADPH) was 0.02 pmol/min/mg of protein and the “EROD activity in the presence” value ([6]; CO) was 0.69 pmol/min/mg of protein.
`CCOCN(C(=O)CCl)c1c(C)cccc1CC` [acetochlor] showed a Resistance to herbicide ([7]; Acetochlor 5 μmol/pot) of 2, a Resistance to herbicide ([7]; Acetochlor 10 μmol/pot) of 2 and a Resistance to herbicide ([7]; Acetochlor 15 μmol/pot) of 1. The “resistance of the transformant to the herbicide” value [8] was “strong resistance”.
With `CCc1cccc(CC)c1N(COC)C(=O)CCl` [alachlor] the Germination of seeds [9] was “inhibited” and the metabolic reaction confirmed [10] was “O-deethylation, O-demethylation”.
`CCNc1nc(Cl)nc(NC(C)C)n1` [atrazine] was tested, and the metabolic reaction confirmed [11] was “N-deethylation, N-deisopropylation” and the “resistance of the transformant to the herbicide” value [8] was “strong resistance”.
In the case of `CCS(=O)(=O)Oc1ccc2c(c1)C(C)(C)CO2` [benfuresate], the metabolic reaction confirmed [10] was “O-deethylation, hydroxylation”.
In the case of `Cc1ccc(NC(=O)N(C)C)cc1Cl` [chlorotoluron], the metabolic reaction confirmed [11] was “N-demethylation, ring hydroxylation”.
For `CCOC1Oc2ccc(OS(C)(=O)=O)cc2C1(C)C` (stereo not shown) [ethofumesate], the metabolic reaction confirmed [10] was “O-deethylation, hydroxylation”.
With `COc1cc(OC)nc(NC(=O)NS(=O)(=O)c2c(Cl)nc3ccccn23)n1` [imazosulfuron] the metabolic reaction confirmed [12] was “ring hydroxylation”.
In the case of `CNC(=O)N(C)c1nc2ccccc2s1` [methabenzthiazuron], the metabolic reaction confirmed [11] was “N-demethylation, ring hydroxylation”.
With `CNc1cnn(-c2cccc(C(F)(F)F)c2)c(=O)c1Cl` [norflurazon] the metabolic reaction confirmed [11] was “N-demethylation”.
In the case of `CO/N=C(/C)c1cccc(Oc2nc(OC)cc(OC)n2)c1C(=O)OC` [pyriminobac-methyl], the metabolic reaction confirmed [11] was “hydroxylation”.
With `CCCN(CCC)c1c([N+](=O)[O-])cc(C(F)(F)F)cc1[N+](=O)[O-]` [triflurarin] the Germination of seeds [9] was “inhibited” and the metabolic reaction confirmed [10] was “O-demethylation”.
